Reference: ChEMBL document CHEMBL1152685, “Structural basis of the selectivity of the beta(2)-adrenergic receptor for fluorinated catecholamines” (Bioorg Med Chem, 2009)
pKi: −log10 of the molar value.

Assays:
[1] = target: Beta-2 adrenergic receptor (Homo sapiens, UniProt P07550, N293L); assay: Displacement of [3H]dihydroalprenolol from human adrenergic beta2 receptor N293L mutant expressed in COS7 cell membrane
[2] = target: Beta-2 adrenergic receptor (Homo sapiens, UniProt P07550, N293F); assay: Displacement of [3H]dihydroalprenolol from human adrenergic beta2 receptor N293F mutant expressed in COS7 cell membrane
[3] = target: Beta-2 adrenergic receptor (Homo sapiens, UniProt P07550, N293A); assay: Displacement of [3H]dihydroalprenolol from human adrenergic beta2 receptor N293A mutant expressed in COS7 cell membrane
[4] = target: Beta-2 adrenergic receptor (Homo sapiens, UniProt P07550); assay: Displacement of [3H]dihydroalprenolol from human adrenergic beta2 receptor expressed in COS7 cell membrane
[5] = target: Beta-2 adrenergic receptor (Homo sapiens, UniProt P07550, V117C); assay: Displacement of [3H]dihydroalprenolol from human adrenergic beta2 receptor V117C mutant expressed in COS7 cell membrane
[6] = target: Beta-2 adrenergic receptor (Homo sapiens, UniProt P07550, N293Q); assay: Displacement of [3H]dihydroalprenolol from human adrenergic beta2 receptor N293Q mutant expressed in COS7 cell membrane
[7] = target: Beta-2 adrenergic receptor (Homo sapiens, UniProt P07550, D192G/F193V); assay: Displacement of [3H]dihydroalprenolol from human adrenergic beta2 receptor D192G, F193V mutant expressed in COS7 cell membrane
Sequence of Beta-2 adrenergic receptor (Homo sapiens, UniProt P07550, D192G/F193V) (P07550 whole entry D192G/F193V): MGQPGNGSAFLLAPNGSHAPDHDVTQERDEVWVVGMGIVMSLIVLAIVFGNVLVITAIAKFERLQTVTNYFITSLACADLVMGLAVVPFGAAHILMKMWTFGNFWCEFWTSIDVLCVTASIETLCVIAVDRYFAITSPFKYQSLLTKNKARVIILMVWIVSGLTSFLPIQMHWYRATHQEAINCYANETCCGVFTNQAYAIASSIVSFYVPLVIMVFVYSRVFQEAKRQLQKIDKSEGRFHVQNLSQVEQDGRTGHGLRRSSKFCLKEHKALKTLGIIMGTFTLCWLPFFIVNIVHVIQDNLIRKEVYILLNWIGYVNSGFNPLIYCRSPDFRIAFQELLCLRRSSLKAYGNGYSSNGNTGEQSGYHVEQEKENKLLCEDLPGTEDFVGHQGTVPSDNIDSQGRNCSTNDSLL

Sequence of Beta-2 adrenergic receptor (Homo sapiens, UniProt P07550, N293F) (P07550 whole entry N293F): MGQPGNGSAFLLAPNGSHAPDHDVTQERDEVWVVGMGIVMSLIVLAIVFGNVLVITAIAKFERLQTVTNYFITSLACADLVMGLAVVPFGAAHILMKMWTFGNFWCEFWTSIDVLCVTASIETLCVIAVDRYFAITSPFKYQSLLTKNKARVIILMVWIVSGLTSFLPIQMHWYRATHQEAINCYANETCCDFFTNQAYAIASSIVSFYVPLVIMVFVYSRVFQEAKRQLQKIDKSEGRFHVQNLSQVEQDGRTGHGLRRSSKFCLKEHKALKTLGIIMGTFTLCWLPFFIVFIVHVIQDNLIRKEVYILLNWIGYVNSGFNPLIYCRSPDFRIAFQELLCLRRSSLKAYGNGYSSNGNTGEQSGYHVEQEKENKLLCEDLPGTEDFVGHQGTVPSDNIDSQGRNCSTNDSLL
Sequence of Beta-2 adrenergic receptor (Homo sapiens, UniProt P07550, N293A) (P07550 whole entry N293A): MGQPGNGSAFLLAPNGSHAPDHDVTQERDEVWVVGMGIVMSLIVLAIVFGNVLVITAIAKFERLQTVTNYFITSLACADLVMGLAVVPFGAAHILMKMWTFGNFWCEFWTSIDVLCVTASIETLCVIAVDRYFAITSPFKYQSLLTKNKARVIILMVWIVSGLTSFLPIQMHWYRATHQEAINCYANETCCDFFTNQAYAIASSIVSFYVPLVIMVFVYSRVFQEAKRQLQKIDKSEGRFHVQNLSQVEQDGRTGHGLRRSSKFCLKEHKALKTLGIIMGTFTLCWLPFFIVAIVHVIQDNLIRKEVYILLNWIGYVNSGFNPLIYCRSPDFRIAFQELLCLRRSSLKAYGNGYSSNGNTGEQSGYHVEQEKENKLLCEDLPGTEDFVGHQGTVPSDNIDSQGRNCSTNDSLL
Sequence of Beta-2 adrenergic receptor (Homo sapiens, UniProt P07550, V117C) (P07550 whole entry V117C): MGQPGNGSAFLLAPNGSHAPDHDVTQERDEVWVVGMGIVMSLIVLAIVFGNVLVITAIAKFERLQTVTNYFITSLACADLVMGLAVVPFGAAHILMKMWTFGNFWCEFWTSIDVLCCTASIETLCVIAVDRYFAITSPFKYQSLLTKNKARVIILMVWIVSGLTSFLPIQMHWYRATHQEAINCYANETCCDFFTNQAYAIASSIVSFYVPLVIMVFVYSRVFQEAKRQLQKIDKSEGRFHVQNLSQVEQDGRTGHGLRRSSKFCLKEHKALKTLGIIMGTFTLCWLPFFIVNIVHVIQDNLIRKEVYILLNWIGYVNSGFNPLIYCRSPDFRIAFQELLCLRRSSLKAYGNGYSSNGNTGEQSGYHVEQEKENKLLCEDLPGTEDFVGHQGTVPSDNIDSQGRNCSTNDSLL
Sequence of Beta-2 adrenergic receptor (Homo sapiens, UniProt P07550) (P07550 whole entry): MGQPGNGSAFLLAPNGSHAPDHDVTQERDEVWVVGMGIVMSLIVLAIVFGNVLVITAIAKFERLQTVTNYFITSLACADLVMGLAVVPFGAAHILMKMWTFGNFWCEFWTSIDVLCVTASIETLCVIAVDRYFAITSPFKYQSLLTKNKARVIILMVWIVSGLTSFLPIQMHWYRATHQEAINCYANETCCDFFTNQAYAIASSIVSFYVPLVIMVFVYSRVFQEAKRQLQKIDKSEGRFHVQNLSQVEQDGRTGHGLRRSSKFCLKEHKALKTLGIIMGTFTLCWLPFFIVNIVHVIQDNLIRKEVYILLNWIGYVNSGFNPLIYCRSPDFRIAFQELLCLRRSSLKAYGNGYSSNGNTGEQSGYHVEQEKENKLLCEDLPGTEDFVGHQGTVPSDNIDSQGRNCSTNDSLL
Sequence of Beta-2 adrenergic receptor (Homo sapiens, UniProt P07550, N293L) (P07550 whole entry N293L): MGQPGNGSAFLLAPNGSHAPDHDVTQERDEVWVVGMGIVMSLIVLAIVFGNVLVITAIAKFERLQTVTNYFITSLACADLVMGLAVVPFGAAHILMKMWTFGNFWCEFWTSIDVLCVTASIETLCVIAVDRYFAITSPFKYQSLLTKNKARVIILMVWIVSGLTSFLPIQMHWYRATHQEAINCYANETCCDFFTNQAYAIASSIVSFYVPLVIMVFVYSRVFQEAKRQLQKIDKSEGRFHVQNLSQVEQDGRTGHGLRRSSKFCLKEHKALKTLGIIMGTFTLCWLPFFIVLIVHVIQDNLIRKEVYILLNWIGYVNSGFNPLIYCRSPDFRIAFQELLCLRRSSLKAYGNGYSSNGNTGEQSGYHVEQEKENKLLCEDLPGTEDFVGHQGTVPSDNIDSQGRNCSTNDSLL
Sequence of Beta-2 adrenergic receptor (Homo sapiens, UniProt P07550, N293Q) (P07550 whole entry N293Q): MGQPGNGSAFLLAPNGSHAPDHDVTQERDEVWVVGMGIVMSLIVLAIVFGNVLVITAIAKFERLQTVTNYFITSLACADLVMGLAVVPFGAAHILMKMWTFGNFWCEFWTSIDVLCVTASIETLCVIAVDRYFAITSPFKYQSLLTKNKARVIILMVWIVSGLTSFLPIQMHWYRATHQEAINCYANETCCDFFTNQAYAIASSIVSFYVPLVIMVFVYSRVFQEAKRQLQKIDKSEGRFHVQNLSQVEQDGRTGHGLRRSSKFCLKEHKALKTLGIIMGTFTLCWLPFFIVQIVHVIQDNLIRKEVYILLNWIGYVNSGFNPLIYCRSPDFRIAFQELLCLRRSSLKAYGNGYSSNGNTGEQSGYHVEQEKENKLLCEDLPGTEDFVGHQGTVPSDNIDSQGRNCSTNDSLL

Question: NC[C@H](O)c1ccc(O)c(O)c1F was tested. Which pKi [1] did it give?
Answer: 3.73

Question: And the pKi [2]?
Answer: 4.15

Question: And the pKi [3]?
Answer: 2.26

Question: What about the pKi [4] of the same compound?
Answer: 2.94

Question: What about the pKi [5] of the same compound?
Answer: < 2.70

Question: And the pKi [6]?
Answer: 2.48

Question: What about the pKi [7] of the same compound?
Answer: < 2.70

Question: Which results are given for NC[C@H](O)c1cc(O)c(O)cc1F?
Answer: pKi [1]: 3.93; pKi [2]: 3.67; pKi [3]: 3.50; pKi [4]: 4.80; pKi [5]: 4.40; pKi [6]: 4.16; pKi [7]: 4.71
